# Measured values taken from patent publication US6911468B2, “Tyrosine phosphatase inhibitors” (Takeda Chemical Industries, Ltd., priority 2000, dated 2005).
# Target: T1, PTP1B (Homo sapiens, UniProt P18031)
# T1 construct: in order to express 1-321 amino acid region encoding enzyme active domain of PTP1B; made in house; host or cells: E. coli BL21 DE3 pLysS
# T1 sequence (P18031 1-321): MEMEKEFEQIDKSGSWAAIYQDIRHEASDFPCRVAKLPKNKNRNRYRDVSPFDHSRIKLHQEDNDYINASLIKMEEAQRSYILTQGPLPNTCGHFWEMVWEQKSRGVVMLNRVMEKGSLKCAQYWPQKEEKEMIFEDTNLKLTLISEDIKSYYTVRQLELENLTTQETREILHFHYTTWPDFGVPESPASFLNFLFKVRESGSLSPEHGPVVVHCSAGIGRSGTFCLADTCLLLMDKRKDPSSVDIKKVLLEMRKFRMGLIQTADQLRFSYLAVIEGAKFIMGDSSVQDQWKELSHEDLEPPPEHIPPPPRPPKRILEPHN
# Experiment: Measurement of PTP1B Inhibitory Activity (dephosphorylation of p-nitrophenylphosphate, absorbance at 405 nm)
# Format: biochemical
# Settings: PTP1B enzyme active domain (1-321 amino acid, 6 histidine residues at C-terminal), pNPP substrate, pH 6.5, 37° C. for 1 hour
# Experimental: Based on the sequence of human PTP-1B registered in Genbank (M31724) database, primer 1 and primer 2 were synthesized, and PTP1B cDNA was amplified from human skeletal muscle cDNA library (Clonetech, Inc. HL5002a) according to PCR method using these primers. The cycle of reactions at 98° C. for 10 seconds, at 58° C. for 30 seconds and at 72° C. for 90 seconds was repeated 35 cycles. The PCR reaction product (1322 bp) was cloned to pT7 Blue-T vector (Novagen, Inc.) to identify the base sequence.
# Human PTP 1B cDNA (1322 bp) (100 ng) was amplified with primer 3 and primer 4 in order to express 1-321 amino acid region encoding enzyme active domain of PTP1B. The PCR reaction product (976 bp) was cloned to pT7 Blue-T vector (Novagen, Inc.) to identify the base sequence.
# The pT7 Blue-T vector-human PTP1B cDNA (976 bp) was cleaved with restriction enzymes NdeI and SalI (Takara Shuzo Co., Ltd.) and subjected to electrophoresis using 0.7% agarose gel, and a 969 bp fragment was excised and purified. The fragment was introduced into pET32a (+) vector (Novagen, Inc.) cleaved with restriction enzymes NdeI and XhoI (Takara Shuzo Co., Ltd.), to constitute a vector pET32a (+)-human PTP1B cDNA (969 bp), which expresses PTP1B (321 amino acid) with 6 histidine residues binded to a C-terminal thereof under a control of T7 lac promotor.
# E.coli BL21 DE3 pLysS (Novagen, Inc.) was transformed with the pET32a (+)-human PTP 1B cDNA (969 bp) to give an ampicillin (50 μg/ml) resistant bacterium. This was shake cultured at 37° C. using 5L of 2xYT medium (ampicillin (50 μg/ml)). When OD600nm reached to 0.5, IPTG (Isopropyl b-D-Thiogalactoside) was added to the culture medium so as to be 1 mM in order to induce the expression of protein, and this medium was further cultured at 37° C. overnight. The bacterium was collected by centrifugation (8000 rpm, 10 minutes, 4° C.).
# The bacterium was suspended in lysis buffer (50 ml) (20 mM Tris HCl (pH 8.0), 0.5 M NaCl, 1 mM PMSF, 5 mM benzamidine, Lysozyme 5 mg) and crushed by sonication. To the supernatant after centrifuging (12000 rpm, 10 minutes, 4° C.) was added imidazole so as to be 50 mM and the mixture was mixed with His Bind resin (Novagen, Inc.) binded with Ni ion (4° C., overnight). The mixture was washed with 200 ml of (20 mM Tris HCl (pH 8.0), 0.5 M NaCl, 1 mM PMSF, 5 mM benzamidine, 50 mM imidazole), eluted with (20 mM Tris HCl (pH 8.0), 0.5 M NaCl, 1 mM PMSF, 5 mM benzamidine, 400 mM imidazole) and concentrated by centrifugation using Ultrafree-15 Biomax-50 (MILLIPORE Corp.) (11 mg/ml, 4ml). The purified protein (PTP1B) was identified by Western blotting method using SDS-PAGE, coomassie Blue stain and anti-PTP1B antibody (UBI Inc.).
# The PTP1B inhibitory activity of the test compound was evaluated by measuring the ability of the test compound to dephosphorylate p-nitrophenylphosphate (pNPP) (a change of the absorbance at 405 nm).
# To a buffer for measurement of the activity (0.1 M sodium acetate (pH 6.5), 1 mM EDTA, 10 mM DTT) (10 ml) was added PTP1B enzyme solution (2 μl) and the mixture was added to each well of a 96-well microtiter plate (100 μl each). A solution of the test compound in DMSO (10 μl) and 2 mM pNPP/the buffer for measurement of the activity (90 μl) were then added to each well, and the absorbance at 405 nm was measured. After keeping at 37° C. for 1 hour, the absorbance was measured again to evaluate a change of the absorbance. Regarding the change of the absorbance in the absence of the test compound as 100%, the concentration of the compound necessary for 50% inhibition (IC50 value) was calculated.
row,IC50 [nM],SMILES
1,500,"Cc1ccc(-c2ccc(O[C@H](Cc3ccccc3)C(=O)O)cc2)n1-c1ccc(Br)cc1 [Example 6, (2R)-2-{4-[1-(4-Bromophenyl)-5-methyl-1H-pyrrol-2-yl]phenoxy}-3-phenylpropanoic acid]"
2,90,"CCCCCCCCc1ccc(-n2c(C)ccc2-c2ccc(O[C@H](Cc3ccccc3)C(=O)O)cc2)cc1 [Example 94, Sodium (2R)-2-([4-[1-(4-octylphenyl)-5-methyl-1H-pyrrol-2-yl]phenyl]oxy)-3-phenylpropanoate]"
3,410,"O=C(O)[C@@H](Cc1ccccc1)Oc1ccc(-c2cccn2-c2ccc(O[C@H](Cc3ccccc3)C(=O)O)cc2)cc1 [Example 16, (2R)-2-{4-[1-(4-{[(1R)-1-Carboxy-2-phenylethyl]oxy}phenyl)-1H-pyrrol-2-yl]phenoxy}-3-phenylpropanoic acid]"
4,530,"CCc1ccc(-c2ccc(O[C@H](Cc3ccccc3)C(=O)O)cc2)n1-c1ccc(Br)cc1 [Example 20, (2R)-2-{4-[1-(4-bromophenyl)-5-ethyl-1H-pyrrol-2-yl]phenoxy}-3-phenylpropanoic acid]"
5,2100,"Cc1ccc(-c2ccc(O[C@H](Cc3c[nH]c4ccccc34)C(=O)O)cc2)n1-c1ccc(Br)cc1 [Example 32, (2R)-2-{4-[1-(4-Bromophenyl)-5-methyl-1H-pyrrol-2-yl]phenoxy}-3-(1H-indol-3-yl)propanoic acid]"
6,340,"Cc1ccc(-c2ccc(-c3ccc(O[C@H](Cc4ccccc4)C(=O)O)cc3)cc2)n1-c1ccc(Br)cc1 [Example 10, (2R)-2-({4′-[1-(4-Bromophenyl)-5-methyl-1H-pyrrol-2-yl][1,1′-biphenyl]-4-yl}oxy)-3-phenylpropanoic acid]"
7,310,"Cc1ccc(-c2ccc(O[C@H](Cc3ccccc3)C(=O)O)cc2)n1Cc1cccc(Oc2ccccc2)c1 [Example 54, (2R)-2-{4-[1-(3-phenoxybenzyl)-5-methyl-1H-pyrrol-2-yl]phenoxy}-3-phenylpropanoic acid]"
8,360,"CCCCCCCCCn1c(C)ccc1-c1ccc(O[C@H](Cc2ccccc2)C(=O)O)cc1 [Example 60, (2R)-2-[4-(5-Methyl-1-nonyl-1H-pyrrol-2-yl)phenoxy]-3-phenylpropanoic acid]"
9,320,"Cc1cc(-c2ccc(O[C@H](Cc3ccccc3)C(=O)O)cc2)n(-c2ccc(Br)cc2)c1C [Example 24, (2R)-2-{4-[1-(4-Bromophenyl)-4,5-dimethyl-1H-pyrrol-2-yl]phenoxy}-3-phenylpropanoic acid]"
10,720,"Cc1cc(-c2ccccc2)c(-c2ccc(O[C@H](Cc3ccccc3)C(=O)O)cc2)n1-c1ccc(Br)cc1 [Example 30, (2R)-2-{4-[1-(4-Bromophenyl)-5-methyl-3-phenyl-1H-pyrrol-2-yl]phenoxy}-3-phenylpropanoic acid]"
11,480,"CCCc1cc(C)n(-c2ccc(Br)cc2)c1-c1ccc(O[C@H](Cc2ccccc2)C(=O)O)cc1 [Example 28, (2R)-2-{4-[1-(4-Bromophenyl)-5-methyl-3-propyl-1H-pyrrol-2-yl]phenoxy}-3-phenylpropanoic acid]"
12,1430,"O=C(O)[C@@H](Cc1ccccc1)Oc1ccc(-c2cccn2-c2ccccc2)cc1 [Example 36, (2R)-2-[4-(1-Phenyl-1H-pyrrol-2-yl)phenoxy]-3-phenylpropanoic acid]"
13,340,"CCCCCCCCn1c(C)ccc1-c1ccc(O[C@H](Cc2ccccc2)C(=O)O)cc1 [Example 58, (2R)-2-[4-(5-Methyl-1-octyl-1H-pyrrol-2-yl)phenoxy]-3-phenylpropanoic acid]"
14,940,"Cc1ccc(-c2ccc(O[C@@H](Cc3ccccc3)C(=O)O)cc2)n1-c1ccc(Br)cc1 [Example 50, (2S)-2-{4-[1-(4-Bromophenyl)-5-methyl-1H-pyrrol-2-yl]phenoxy}-3-phenylpropanoic acid]"
15,400,"Cc1ccc(-c2ccc(O[C@H](Cc3ccccc3)C(=O)O)cc2)n1-c1ccc(C(F)(F)F)cc1 [Example 46, (2R)-2-{4-[5-Methyl-1-(4-trifluoromethylphenyl)-1H-pyrrol-2-yl]phenoxy}-3-phenylpropanoic acid]"
16,130,"CCCCCCCCCCCCn1c(C)ccc1-c1ccc(O[C@H](Cc2ccccc2)C(=O)O)cc1 [Example 56, (2R)-2-[4-(1-Dodecyl-5-methyl-1H-pyrrol-2-yl)phenoxy]-3-phenylpropanoic acid]"
17,230,"CCCCCCCCCCCn1c(C)ccc1-c1ccc(O[C@H](Cc2ccccc2)C(=O)O)cc1 [Example 64, (2R)-2-[4-(5-Methyl-1-undecyl-1H-pyrrol-2-yl)phenoxy]-3-phenylpropanoic acid]"
18,1010,"O=C(O)[C@@H](Cc1ccccc1)Oc1ccc(-n2cccc2-c2ccc(Br)cc2)cc1 [Example 18, (2R)-2-{4-[2-(4-bromophenyl)-1H-pyrrol-1-yl]phenoxy}-3-phenylpropanoic acid]"
19,890,"O=C(O)[C@@H](Cc1ccccc1)Oc1ccc(-c2cccn2-c2ccc(Br)cc2)cc1 [Example 2, (2R)-2-{4-[1-(4-Bromophenyl)-1H-pyrrol-2-yl]phenoxy}-3-phenylpropanoic acid]"
20,5870,"O=C(O)CCc1ccc(-c2cccn2-c2ccc(CCC(=O)O)cc2)cc1 [Example 14, 3-(4-{1-[4-(2-Carboxyethyl)phenyl]-1H-pyrrol-2-yl}phenyl)propanoic acid]"
21,6480,"Cc1ccc(-c2ccc(/C=C/C(=O)O)cc2)n1-c1ccc(/C=C/C(=O)O)cc1 [Example 4, (2E)-3-[4-(1-{4-[(1E)-2-Carboxyethenyl]phenyl}-5-methyl-1H-pyrrol-2-yl)phenyl]-2-propenoic acid]"
22,710,"O=C(O)[C@@H](Cc1ccccc1)Oc1ccc(-c2ccc(-c3ccccc3)n2-c2ccc(Br)cc2)cc1 [Example 22, (2R)-2-{4-[1-(4-Bromophenyl)-5-phenyl-1H-pyrrol-2-yl]phenoxy}-3-phenylpropanoic acid]"
23,420,"Cc1cc(C)n(-c2ccc(Br)cc2)c1-c1ccc(O[C@H](Cc2ccccc2)C(=O)O)cc1 [Example 26, (2R)-2-{4-[1-(4-Bromophenyl)-3,5-dimethyl-1H-pyrrol-2-yl]phenoxy}-3-phenylpropanoic acid]"
24,4900,"O=C(O)[C@@H](Cc1ccccc1)Oc1ccc(-c2cccn2-c2ccc(C(F)(F)F)cc2)cc1 [Example 42, (2R)-2-{4-[1-(4-Trifluoromethylphenyl)-1H-pyrrol-2-yl]phenoxy}-3-phenylpropanoic acid]"
25,310,"Cc1ccc(-c2ccc(O[C@H](Cc3ccccc3)C(=O)O)cc2)n1CCc1ccc(Br)cc1 [Example 52, (2R)-2-(4-{1-[2-(4-bromophenyl)ethan-1-yl]-5-methyl-1H-pyrrol-2-yl}phenoxy)-3-phenylpropanoic acid]"
